From patent publication US11873291B2, “Quinoline cGAS antagonist compounds” (ImmuneSensor Therapeutics, Inc., priority 2020, dated 2024)

The molecules below were run against T1, recombinant human cGAS (aa147-522) (Homo sapiens, UniProt Q8N884) (assay: In vitro inhibition assay of cGAS activity (ATP consumption, KinaseGlo Max)). Conditions: Table 2, read-out: cGAS Inhibition Results IC50.
T1 construct: recombinant human cGAS (aa147-522); His6-SUMO (cleaved yes); made in house; host or cells: E. coli BL21/pLys
T1 sequence (Q8N884 147-522): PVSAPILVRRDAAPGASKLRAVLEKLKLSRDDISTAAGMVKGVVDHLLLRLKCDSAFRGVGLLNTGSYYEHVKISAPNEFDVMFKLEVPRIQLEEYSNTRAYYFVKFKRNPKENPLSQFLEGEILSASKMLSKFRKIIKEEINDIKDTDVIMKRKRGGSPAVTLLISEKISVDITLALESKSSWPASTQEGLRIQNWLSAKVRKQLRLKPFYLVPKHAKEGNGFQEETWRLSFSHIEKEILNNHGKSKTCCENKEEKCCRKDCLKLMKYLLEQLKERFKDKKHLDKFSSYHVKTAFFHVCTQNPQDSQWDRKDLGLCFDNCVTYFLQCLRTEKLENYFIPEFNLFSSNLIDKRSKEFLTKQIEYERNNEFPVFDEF
Assay type: biochemical
Summary of the method: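 De-tagged recombinant human cGAS (aa147-522, 1.5 μg/mL) was incubated 20 min at 37 °C with herring testis DNA, 6.6 μM ATP and 0.1 mM GTP in Tris pH 7.5/MgCl2 buffer plus serial compound dilutions. Remaining ATP was read by KinaseGlo Max luminescence, and IC50 was fitted from % ATP consumption versus log concentration.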
In the case of `O=C(O)C(Cc1ccc(O)cc1)Nc1cc(-n2ccnc2)c2ccc(Cl)c(Cl)c2n1` (stereo not drawn) [I-169], the IC50 is reported as less than 2000 nM. `O=C1CN(c2cc(Cl)nc3c(Cl)c(Cl)ccc23)CCN1` [I-307] was tested, and the IC50 was greater than 30000 nM. Molecule `O=C(O)c1cccc(-c2cc(-n3ccnc3)c3ccc(Cl)cc3n2)c1` [I-6, 3-(7-Chloro-4-(1H-imidazol-1-yl)quinolin-2-yl)benzoic acid] has an IC50 of less than 2000 nM. Molecule `CN(CCCO[PH](=O)OCCC#N)c1cc(-c2cn[nH]c2)c2ccc(Cl)c(Cl)c2n1` (stereo not drawn) [I-257] has an IC50 of less than 2000 nM. Work on `O=C(O)c1cc(-c2cc(-n3ccnc3)c3ccc(Cl)cc3n2)cnc1O` [I-57, 5-(7-chloro-4-(1H-imidazol-1-yl)quinolin-2-yl)-2-hydroxynicotinic acid] yielded an IC50 of 2000 to 30000 nM. In the case of `CN(CCS(N)(=O)=O)c1cc(-n2ccnc2)c2ccc(Cl)c(Cl)c2n1` [I-204], the IC50 is reported as less than 2000 nM. `NS(=O)(=O)c1cccc(-c2cc(-n3ccnc3)c3ccc(Cl)c(Cl)c3n2)c1` [I-46] showed an IC50 of less than 2000 nM. For `O=C(CO)NC[C@@H]1CCCN1c1cc(-n2ccnc2)c2ccc(Cl)c(Cl)c2n1` [I-154, (S)—N-((1-(7,8-dichloro-4-(1H-imidazol-1-yl)quinolin-2-yl)pyrrolidin-2-yl)methyl)-2-hydroxyacetamide], the IC50 was less than 2000 nM. Molecule `Oc1cc(OC(F)(F)F)cc(-c2cc(-n3ccnc3)c3ccc(Cl)c(Cl)c3n2)c1` [I-44] has an IC50 greater than 30000 nM. `OC1CCN(c2cc(-n3ccnc3)c3ccc(Cl)c(Cl)c3n2)CC1` [I-132] gave an IC50 of 2000 to 30000 nM. In the case of `CN(CC(=O)O)c1cc(-n2ccnc2)c2ccc(Cl)cc2n1` [I-167], the IC50 is reported as less than 2000 nM. Molecule `COC(=O)[C@@H]1C[C@@H](O)CN1c1cc(-c2cn[nH]c2)c2ccc(Cl)c(Cl)c2n1` [I-434] has an IC50 of 2000 to 30000 nM. In the case of `Brc1ccc2c(-n3ccnc3)cc(-c3ccccc3)nc2c1` [I-424, 7-bromo-4-(1H-imidazol-1-yl)-2-phenylquinoline], the IC50 is reported as 2000 to 30000 nM. Work on `O=C(O)CNC(=O)[C@@H]1CN(c2cc(-c3cn[nH]c3)c3ccc(Cl)c(Cl)c3n2)CCO1` [I-341] yielded an IC50 of less than 2000 nM. With `NS(=O)(=O)CC1CCCCN1c1cc(-n2ccnc2)c2ccc(Cl)c(Cl)c2n1` (stereo not drawn) [I-368] the IC50 was 2000 to 30000 nM. With `COc1ccc(C(=O)O)cc1-c1cc(-n2ccnc2)c2ccc(Cl)cc2n1` [I-30] the IC50 was 2000 to 30000 nM. With `OCC1CN(c2cc(-n3ccnc3)c3ccc(Cl)c(Cl)c3n2)CCO1` (stereo not drawn) [I-98] the IC50 was 2000 to 30000 nM. Work on `Cn1cnc(S(=O)(=O)NC2CCCN(c3cc(-n4ccnc4)c4ccc(Cl)cc4n3)C2)c1` (stereo not drawn) [I-103] yielded an IC50 of 2000 to 30000 nM. For `CN(CCNC(=O)c1ccccc1)c1cc(-n2ccnc2)c2ccc(Cl)cc2n1` [I-237], the IC50 was 2000 to 30000 nM. `NS(=O)(=O)CCNc1cc(-c2cn[nH]c2)c2c(Cl)c(Cl)ccc2n1` [I-261] was tested, and the IC50 was greater than 30000 nM. For `NC[C@@H]1CCCN1c1cc(-n2ccnc2)c2ccc(Cl)c(Cl)c2n1` [I-153, (S)-(1-(7,8-dichloro-4-(1H-imidazol-1-yl)quinolin-2-yl)pyrrolidin-2-yl)methanamine], the IC50 was 2000 to 30000 nM. With `COC(CN(C)c1cc(-n2ccnc2)c2ccc(Cl)c(Cl)c2n1)OC` [I-364] the IC50 was 2000 to 30000 nM. `O=P(O)(O)OCC1CCCN(c2cc(-n3ccnc3)c3ccc(Cl)c(Cl)c3n2)C1` (stereo not drawn) [I-113, (1-(7,8-dichloro-4-(1H-imidazol-1-yl)quinolin-2-yl)piperidin-3-yl)methyl dihydrogen phosphate] showed an IC50 of less than 2000 nM. `CN(CCNS(=O)(=O)c1ccccc1C(F)(F)F)c1cc(-n2ccnc2)c2ccc(Cl)cc2n1` [I-228] showed an IC50 greater than 30000 nM. `O=S(=O)(O)CCNc1cc(-n2ccnc2)c2ccc(Cl)c(Cl)c2n1` [I-158] showed an IC50 of less than 2000 nM. With `C[C@H](Nc1cc(-c2cn[nH]c2)nc2c(Cl)c(Cl)ccc12)C(=O)O` [I-285] the IC50 was less than 2000 nM. With `O=C(O)[C@H]1CCN1c1cc(-c2cn[nH]c2)c2ccc(Cl)c(Cl)c2n1` [I-359] the IC50 was 2000 to 30000 nM. Molecule `Clc1ccc2c(-n3ccnc3)cc(NCCN3CCOCC3)nc2c1` [I-354] has an IC50 greater than 30000 nM. Work on `O=C(O)[C@@H]1CCCCN1c1cc(-c2cn[nH]c2)c2ccc(Cl)c(Cl)c2n1` [I-128] yielded an IC50 of 2000 to 30000 nM. `NC1CCCN(c2cc(-n3ccnc3)c3ccc(Cl)cc3n2)C1` (stereo not drawn) [I-108, 1-(7-chloro-4-(1H-imidazol-1-yl)quinolin-2-yl)piperidin-3-amine] showed an IC50 greater than 30000 nM. In the case of `O=P(O)(O)CC1CCCN(c2cc(-n3ccnc3)c3ccc(Cl)c(Cl)c3n2)C1` (stereo not drawn) [I-114], the IC50 is reported as 2000 to 30000 nM. Molecule `Clc1ccc2c(-n3ccnc3)cc(-c3cn[nH]c3)nc2c1Cl` [I-378] has an IC50 of less than 2000 nM. `CN(CCNS(C)(=O)=O)c1cc(-c2cn[nH]c2)c2ccc(Cl)c(Cl)c2n1` [I-235] was tested, and the IC50 was less than 2000 nM. With `COc1ccc(-c2cc(-n3ccnc3)c3ccc(Cl)cc3n2)cc1` [I-2, 7-chloro-4-(1H-imidazol-1-yl)-2-(4-methoxyphenyl)quinoline] the IC50 was 2000 to 30000 nM. `O=C(O)CC1COCCN1c1cc(-n2ccnc2)c2ccc(Cl)c(Cl)c2n1` (stereo not drawn) [I-94] was tested, and the IC50 was less than 2000 nM. Work on `CN(CCCO)c1cc(-c2cn[nH]c2)c2ccc(Cl)c(Cl)c2n1` [I-248] yielded an IC50 of less than 2000 nM. With `OC[C@@H]1C[C@@H](O)CN1c1cc(-n2ccnc2)c2ccc(Cl)c(Cl)c2n1` [I-142] the IC50 was less than 2000 nM. For `C[C@@H](CO)N(C)c1cc(-n2ccnc2)c2ccc(Cl)c(Cl)c2n1` [I-241], the IC50 was less than 2000 nM. `O=C(O)c1cc(-c2cc(Cl)c3ccc(Cl)c(Cl)c3n2)ccc1O` [I-75, 2-Hydroxy-5-(4,7,8-trichloroquinolin-2-yl)benzoic acid] showed an IC50 greater than 30000 nM. For `O=C(O)c1ccc(Cl)c(-c2cc(-n3ccnc3)c3ccc(Cl)cc3n2)c1` [I-31], the IC50 was greater than 30000 nM. In the case of `Cc1cc(N(C)CC(N)=O)c2ccc(Cl)c(Cl)c2n1` [I-314], the IC50 is reported as greater than 30000 nM. Work on `CN(CCO[PH](=O)O)c1cc(-n2ccnc2)c2ccc(Cl)c(Cl)c2n1` [I-255] yielded an IC50 of less than 2000 nM. `O=C(O)[C@@H]1[C@@H](O)CCN1c1cc(-n2ccnc2)c2ccc(Cl)c(Cl)c2n1` [I-345] gave an IC50 of less than 2000 nM. Molecule `CS(=O)(=O)CCC(Nc1cc(-n2ccnc2)c2ccc(Cl)c(Cl)c2n1)C(=O)O` (stereo not drawn) [I-170, 2-((7,8-Dichloro-4-(1H-imidazol-1-yl)quinolin-2-yl)amino)-4-(methylsulfonyl)butanoic acid] has an IC50 of less than 2000 nM. `Clc1ccc2c(-c3cn[nH]c3)cc(N3CCOC(c4nnn[nH]4)C3)nc2c1Cl` (stereo not drawn) [I-370] was tested, and the IC50 was less than 2000 nM. With `NS(=O)(=O)CCNc1cc(-c2cn[nH]c2)c2c(Cl)cc(Cl)cc2n1` [I-263] the IC50 was greater than 30000 nM. `Nc1ccc(-c2cc(-n3ccnc3)c3ccc(Cl)cc3n2)cc1C(=O)O` [I-20] was tested, and the IC50 was less than 2000 nM. For `NS(=O)(=O)N1CCOC(CNc2cc(-n3ccnc3)c3ccc(Cl)c(Cl)c3n2)C1` (stereo not drawn) [I-219, 2-(((7,8-dichloro-4-(1H-imidazol-1-yl)quinolin-2-yl)amino)methyl)morpholine-4-sulfonamide], the IC50 was less than 2000 nM. `O=C(O)c1ccc(-c2cc(-n3ccnc3)c3ccc(Cl)cc3n2)cc1` [I-4] was tested, and the IC50 was 2000 to 30000 nM.

Same assay, conditions: Table 3, read-out: cGAS Inhibition Results IC50
Work on `Clc1ccc2c(-n3ccnc3)cc(N3CCC[C@H]3c3nn[nH]n3)nc2c1Cl` [I-465] yielded an IC50 of less than 2000 nM. `CO[C@H]1CCN(c2cc(-n3ccnc3)c3ccc(Cl)c(Cl)c3n2)[C@@H]1C(=O)O` [I-560] gave an IC50 of less than 2000 nM. Work on `O=C(O)C12CC(Nc3cc(-n4ccnc4)c4ccc(Cl)c(Cl)c4n3)(C1)C2` [I-513] yielded an IC50 of less than 2000 nM. Work on `CN(CCS(=O)(=O)NCCC(=O)O)c1cc(-n2ccnc2)c2ccc(Cl)c(Cl)c2n1` [I-630] yielded an IC50 of less than 2000 nM. `O=C(O)[C@@H]1SCCN1c1cc(-n2ccnc2)c2ccc(Cl)c(Cl)c2n1` [I-486] was tested, and the IC50 was less than 2000 nM. For `O=c1nc([C@@H]2CCCN2c2cc(-n3ccnc3)c3ccc(Cl)c(Cl)c3n2)o[nH]1` [I-605, (S)-5-(1-(7,8-dichloro-4-(1H-imidazol-1-yl)quinolin-2-yl)pyrrolidin-2-yl)-1,2,4-oxadiazol-3(2H)-one], the IC50 was greater than 30000 nM. Molecule `COC(=O)[C@H]1[C@@H](O)CCN1c1cc(-n2ccnc2)c2ccc(Cl)c(Cl)c2n1` [I-500] has an IC50 of 2000 to 30000 nM. Molecule `C[C@H](NC(=O)CCN(C)c1cc(-n2ccnc2)c2ccc(Cl)c(Cl)c2n1)C(=O)O` [I-565] has an IC50 of less than 2000 nM. `O=C(O)C#CC[C@@H]1CCCN1c1cc(-n2ccnc2)c2ccc(Cl)c(Cl)c2n1` [I-819, (S)-4-(1-(7,8-dichloro-4-(1H-imidazol-1-yl)quinolin-2-yl)pyrrolidin-2-yl)but-2-ynoic acid] was tested, and the IC50 was less than 2000 nM. `OC1CC2CCC(C1)N2c1cc(-n2ccnc2)c2ccc(Cl)c(Cl)c2n1` (stereo not drawn) [I-489] was tested, and the IC50 was less than 2000 nM. `O=C(O)C1CN(C(=O)C[C@@H]2CCCN2c2cc(-n3ccnc3)c3ccc(Cl)c(Cl)c3n2)CCO1` (stereo partly drawn) [I-538] showed an IC50 of less than 2000 nM. Molecule `COC(=O)[C@@H]1c2ccccc2CN1c1cc(-n2ccnc2)c2ccc(Cl)c(Cl)c2n1` [I-588] has an IC50 of less than 2000 nM. Molecule `O=C(O)CCNC(=O)[C@@H]1CN(c2cc(-n3ccnc3)c3ccc(Cl)c(Cl)c3n2)CCO1` [I-555] has an IC50 of less than 2000 nM. In the case of `O=C(O)c1cccn1-c1cc(-n2ccnc2)c2ccc(Cl)c(Cl)c2n1` [I-506], the IC50 is reported as 2000 to 30000 nM. `O=C(O)[C@@H]1C[C@H](F)CN1c1cc(-n2ccnc2)c2ccc(Cl)c(Cl)c2n1` [I-466] gave an IC50 of less than 2000 nM. `CN(CCS(=O)(=O)N1CCC(C(=O)O)C1)c1cc(-n2ccnc2)c2ccc(Cl)c(Cl)c2n1` (stereo not drawn) [I-627] gave an IC50 of less than 2000 nM. Work on `CN(CCNC(=O)CO)c1cc(-n2ccnc2)c2ccc(Cl)c(Cl)c2n1` [I-613] yielded an IC50 of less than 2000 nM. For `O=C(O)c1ccccc1S(=O)(=O)N[C@@H]1C[C@@H](C(=O)O)N(c2cc(-n3ccnc3)c3ccc(Cl)c(Cl)c3n2)C1` [I-509], the IC50 was less than 2000 nM. With `Clc1ccc2c(-n3ccnc3)cc(N3CCC(c4nn[nH]n4)C3)nc2c1Cl` (stereo not drawn) [I-464] the IC50 was less than 2000 nM. In the case of `O=C(NC[C@@H]1CCCN1c1cc(-n2ccnc2)c2ccc(Cl)c(Cl)c2n1)c1cc(O)no1` [I-641], the IC50 is reported as less than 2000 nM. With `O=C(O)CCOC[C@@H]1CCCN1c1cc(-c2ccoc2)c2ccc(Cl)c(Cl)c2n1` [I-824] the IC50 was greater than 30000 nM. `CN(CCNC(=O)CCO)c1cc(-n2ccnc2)c2ccc(Cl)c(Cl)c2n1` [I-614] gave an IC50 of 2000 to 30000 nM. For `O=C(O)CCOC[C@@H]1CCCN1c1cc(N2CC[C@@H](O)C2)c2ccc(Cl)c(Cl)c2n1` [I-821, 3-(((S)-1-(7,8-dichloro-4-((R)-3-hydroxypyrrolidin-1-yl)quinolin-2-yl)pyrrolidin-2-yl)methoxy)propanoic acid], the IC50 was greater than 30000 nM.
